Measured values from patent US12570666B2, “Furoindazole derivatives” (Bayer Aktiengesellschaft, priority 2019, dated 2026).

Target: T1, human GPR84 receptor (Homo sapiens, UniProt Q9NQS5)
T1 construct: frozen aliquots prepared by acCELLerate; host or cells: CHO-K1
Test: cAMP HTRF assay for identification of cellular GPR84 antagonists
Type: cell-based
Conditions: CHO-K1 cells stably expressing human GPR84; Forskolin + agonist 6-OAU (EC80); average or median values
Method in brief: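 IC50 came from 4-parameter fits over 20 μM–0.07 nM (11 points, duplicate), normalized between DMSO (0%) and agonist-free (100% inhibition) wells. Readout: cAMP-d2/Eu-cryptate HTRF in hGPR84 CHO-K1 cells given forskolin plus agonist, compound preincubated 30 min at room temperature.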

T1 sequence (Q9NQS5 whole entry): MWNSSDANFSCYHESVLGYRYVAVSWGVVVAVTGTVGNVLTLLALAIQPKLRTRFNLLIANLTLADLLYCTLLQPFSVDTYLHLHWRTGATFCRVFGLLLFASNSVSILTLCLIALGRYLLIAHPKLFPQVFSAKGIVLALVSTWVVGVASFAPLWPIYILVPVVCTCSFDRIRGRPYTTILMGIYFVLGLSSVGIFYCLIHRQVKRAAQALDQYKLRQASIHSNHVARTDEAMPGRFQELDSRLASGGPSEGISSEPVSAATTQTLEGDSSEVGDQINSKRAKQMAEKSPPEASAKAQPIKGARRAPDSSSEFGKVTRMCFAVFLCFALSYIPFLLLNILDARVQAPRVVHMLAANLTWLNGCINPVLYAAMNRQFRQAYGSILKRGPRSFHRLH

| SMILES | IC50 [nM] |
| --- | --- |
| Cc1c(C(=O)NC[C@@H]2CCCO2)oc2c1-c1nn(C[C@H]3COCCO3)cc1CC2 [Example 89, 2-[(2S)-1,4-dioxan-2-ylmethyl]-8-methyl-N-[(2S)-tetrahydrofuran-2-ylmethyl]-4,5-dihydro-2H-furo[2,3-g]indazole-7-carboxamide] | 40 |
| Cc1c(C(=O)NC[C@@H]2COCCO2)oc2c1-c1nn(C[C@H]3COCCO3)cc1CC2 [Example 90, N-[(2R)-1,4-dioxan-2-ylmethyl]-2-[(2S)-1,4-dioxan-2-ylmethyl]-8-methyl-4,5-dihydro-2H-furo[2,3-g]indazole-7-carboxamide] | 47 |
| Cc1c(C(=O)NC[C@@H]2CCCO2)oc2c1-c1nn(CC3COC3)cc1CC2 [Example 91, 8-methyl-2-(oxetan-3-ylmethyl)-N-[(2S)-tetrahydrofuran-2-ylmethyl]-4,5-dihydro-2H-furo[2,3-g]indazole-7-carboxamide] | 64 |
| Cc1c(C(=O)NC[C@@H]2COCCO2)oc2c1-c1nn(CC3COC3)cc1CC2 [Example 92, N-[(2R)-1,4-dioxan-2-ylmethyl]-8-methyl-2-(oxetan-3-ylmethyl)-4,5-dihydro-2H-furo[2,3-g]indazole-7-carboxamide] | 130 |
| Cc1c(C(=O)NC[C@@H]2CCCO2)oc2c1-c1nn(CC3(C)COC3)cc1CC2 [Example 93, 8-methyl-2-[(3-methyloxetan-3-yl)methyl]-N-[(2S)-tetrahydrofuran-2-ylmethyl]-4,5-dihydro-2H-furo[2,3-g]indazole-7-carboxamide] | 17 |
| Cc1c(C(=O)NC[C@@H]2COCCO2)oc2c1-c1nn(CC3(C)COC3)cc1CC2 [Example 94, N-[(2R)-1,4-dioxan-2-ylmethyl]-8-methyl-2-[(3-methyloxetan-3-yl)methyl]-4,5-dihydro-2H-furo[2,3-g]indazole-7-carboxamide] | 21 |
| Cc1c(C(=O)NC[C@@H]2CCCO2)oc2c1-c1nn(CC3(F)COC3)cc1CC2 [Example 95, 2-[(3-fluorooxetan-3-yl)methyl]-8-methyl-N-[(2S)-tetrahydrofuran-2-ylmethyl]-4,5-dihydro-2H-furo[2,3-g]indazole-7-carboxamide] | 31 |
| Cc1c(C(=O)NC[C@@H]2COCCO2)oc2c1-c1nn(CC3(F)COC3)cc1CC2 [Example 96, N-[(2R)-1,4-dioxan-2-ylmethyl]-2-[(3-fluorooxetan-3-yl)methyl]-8-methyl-4,5-dihydro-2H-furo[2,3-g]indazole-7-carboxamide] | 47 |
| Cc1c(C(=O)NC[C@@H]2CCCO2)oc2c1-c1nn(C[C@H]3CCO3)cc1CC2 [Example 97, 8-methyl-2-[(2R)-oxetan-2-ylmethyl]-N-[(2S)-tetrahydrofuran-2-ylmethyl]-4,5-dihydro-2H-furo[2,3-g]indazole-7-carboxamide] | 620 |
| Cc1c(C(=O)NC[C@@H]2COCCO2)oc2c1-c1nn(C[C@H]3CCO3)cc1CC2 [Example 98, N-[(2R)-1,4-dioxan-2-ylmethyl]-8-methyl-2-[(2R)-oxetan-2-ylmethyl]-4,5-dihydro-2H-furo[2,3-g]indazole-7-carboxamide] | 470 |
| Cc1c(C(=O)NC[C@@H]2CCCO2)oc2c1-c1nn(C[C@@H]3CCO3)cc1CC2 [Example 99, 8-methyl-2-[(2S)-oxetan-2-ylmethyl]-N-[(2S)-tetrahydrofuran-2-ylmethyl]-4,5-dihydro-2H-furo[2,3-g]indazole-7-carboxamide] | 210 |
| Cc1c(C(=O)NC[C@@H]2COCCO2)oc2c1-c1nn(C[C@@H]3CCO3)cc1CC2 [Example 100, N-[(2R)-1,4-dioxan-2-ylmethyl]-8-methyl-2-[(2S)-oxetan-2-ylmethyl]-4,5-dihydro-2H-furo[2,3-g]indazole-7-carboxamide] | 310 |
| Cc1c(C(=O)NC[C@@H]2CCCO2)oc2c1-c1nn(C[C@H]3CN(C)CCO3)cc1CC2 [Example 101, 8-methyl-2-{[(2R)-4-methylmorpholin-2-yl]methyl}-N-[(2S)-tetrahydrofuran-2-ylmethyl]-4,5-dihydro-2H-furo[2,3-g]indazole-7-carboxamide] | 1540 |
| Cc1c(C(=O)NC[C@@H]2COCCO2)oc2c1-c1nn(C[C@H]3CN(C)CCO3)cc1CC2 [Example 102, N[(2R)-1,4-dioxan-2-ylmethyl]-8-methyl-2-{[(2R)-4-methylmorpholin-2-yl]methyl}-4,5-dihydro-2H-furo[2,3-g]indazole-7-carboxamide] | 760 |
| Cc1c(C(=O)NC[C@@H]2CCCO2)oc2c1-c1nn(C[C@@H]3CN(C)CCO3)cc1CC2 [Example 103, 8-methyl-2-{[(2S)-4-methylmorpholin-2-yl]methyl}-N-[(2S)-tetrahydrofuran-2-ylmethyl]-4,5-dihydro-2H-furo[2,3-g]indazole-7-carboxamide] | 170 |
| Cc1c(C(=O)NC[C@@H]2COCCO2)oc2c1-c1nn(C[C@@H]3CN(C)CCO3)cc1CC2 [Example 104, N[(2R)-1,4-dioxan-2-ylmethyl]-8-methyl-2-{[(2S)-4-methylmorpholin-2-yl]methyl}-4,5-dihydro-2H-furo[2,3-g]indazole-7-carboxamide] | 180 |

| SMILES | IC50 [nM] |
| --- | --- |
| Cc1c(C(=O)NC[C@@H]2CCCO2)oc2c1-c1nn(C[C@H]3CCCO3)cc1CC2 [Example 105, 8-methyl-2-{[(2R)-tetrahydrofuran-2-yl]methyl]-N-[(2S)-tetrahydrofuran-2-ylmethyl]-4,5-dihydro-2H-furo[2,3-g]indazole-7-carboxamide] | 72 |
| Cc1c(C(=O)NC[C@@H]2COCCO2)oc2c1-c1nn(C[C@H]3CCCO3)cc1CC2 [Example 106, N[(2R)-1,4-dioxan-2-ylmethyl]-8-methyl-2-[(2R)-tetrahydrofuran-2-ylmethyl]-4,5-dihydro-2H-furo[2,3-g]indazole-7-carboxamide] | 77 |
| Cc1c(C(=O)NC[C@@H]2CCCO2)oc2c1-c1nn(C[C@@H]3CCCO3)cc1CC2 [Example 107, 8-methyl-N,2-bis[(2S)-tetrahydrofuran-2-ylmethyl]-4,5-dihydro-2H-furo[2,3-g]indazole-7-carboxamide] | 35 |
| Cc1c(C(=O)NC[C@@H]2COCCO2)oc2c1-c1nn(C[C@@H]3CCCO3)cc1CC2 [Example 108, N[(2R)-1,4-dioxan-2-ylmethyl]-8-methyl-2-[(2S)-tetrahydrofuran-2-ylmethyl]-4,5-dihydro-2H-furo[2,3-g]indazole-7-carboxamide] | 58 |
| Cc1c(C(=O)NC[C@@H]2CCCO2)oc2c1-c1nn(CC3CN(C(=O)OC(C)(C)C)C3)cc1CC2 [Example 109, tert-butyl 3-[(8-methyl-7-{[(2S)-tetrahydrofuran-2-ylmethyl]carbamoyl}-4,5-dihydro-2H-furo[2,3-g]indazol-2-yl)methyl]azetidine-1-carboxylate] | 11 |
| Cc1c(C(=O)NC[C@@H]2COCCO2)oc2c1-c1nn(CC3CN(C(=O)OC(C)(C)C)C3)cc1CC2 [Example 110, tert-butyl 3-[(7-{[(2R)-1,4-dioxan-2-ylmethyl]carbamoyl}-8-methyl-4,5-dihydro-2H-furo[2,3-g]indazol-2-yl)methyl]azetidine-1-carboxylate] | 10 |
| Cc1c(C(=O)NC[C@@H]2CCCO2)oc2c1-c1nn(C[C@H]3CCOC3)cc1CC2 [Example 111, 8-methyl-N-[(2S)-tetrahydrofuran-2-ylmethyl]-2-[(3R)-tetrahydrofuran-3-ylmethyl]-4,5-dihydro-2H-furo[2,3-g]indazole-7-carboxamide] | 140 |
| Cc1c(C(=O)NC[C@@H]2COCCO2)oc2c1-c1nn(C[C@H]3CCOC3)cc1CC2 [Example 112, N-[(2R)-1,4-dioxan-2-ylmethyl]-8-methyl-2-[(3R)-tetrahydrofuran-3-ylmethyl]-4,5-dihydro-2H-furo[2,3-g]indazole-7-carboxamide] | 320 |
| Cc1c(C(=O)NC[C@@H]2CCCO2)oc2c1-c1nn(C[C@@H]3CCOC3)cc1CC2 [Example 113, 8-methyl-N-[(2S)-tetrahydrofuran-2-ylmethyl]-2-[(3S)-tetrahydrofuran-3-ylmethyl]-4,5-dihydro-2H-furo[2,3-g]indazole-7-carboxamide] | 91 |
| Cc1c(C(=O)NC[C@@H]2COCCO2)oc2c1-c1nn(C[C@@H]3CCOC3)cc1CC2 [Example 114, N-[(2R)-1,4-dioxan-2-ylmethyl]-8-methyl-2-[(3S)-tetrahydrofuran-3-ylmethyl]-4,5-dihydro-2H-furo[2,3-g]indazole-7-carboxamide] | 200 |
| O=C(NC[C@@H]1CCCO1)c1oc2c(c1C(F)(F)F)-c1nn(Cc3ccccn3)cc1CC2 [Example 115, 2-(pyridin-2-ylmethyl)-N-[(2S)-tetrahydrofuran-2-ylmethyl]-8-(trifluoromethyl)-4,5-dihydro-2H-furo[2,3-g]indazole-7-carboxamide] | 27 |
| O=C(NC[C@@H]1COCCO1)c1oc2c(c1C(F)(F)F)-c1nn(Cc3ccccn3)cc1CC2 [Example 116, N-[(2R)-1,4-dioxan-2-ylmethyl]-2-(pyridin-2-ylmethyl)-8-(trifluoromethyl)-4,5-dihydro-2H-furo[2,3-g]indazole-7-carboxamide] | 28 |
| Cn1ccc(CNC(=O)c2oc3c(c2C(F)(F)F)-c2nn(Cc4ccccn4)cc2CC3)n1 [Example 117, N-[(1-methyl-1H-pyrazol-3-yl)methyl]-2-(pyridin-2-ylmethyl)-8-(trifluoromethyl)-4,5-dihydro-2H-furo[2,3-g]indazole-7-carboxamide] | 55 |
| O=C(NCc1ncco1)c1oc2c(c1C(F)(F)F)-c1nn(Cc3ccccn3)cc1CC2 [Example 118, N-(1,3-oxazol-2-ylmethyl)-2-(pyridin-2-ylmethyl)-8-(trifluoromethyl)-4,5-dihydro-2H-furo[2,3-g]indazole-7-carboxamide] | 24 |
| O=C(NC[C@@H]1CCCO1)c1oc2c(c1C1CC1)-c1nn(Cc3ccccn3)cc1CC2 [Example 119, 8-cyclopropyl-2-(pyridin-2-ylmethyl)-N-[(2S)-tetrahydrofuran-2-ylmethyl]-4,5-dihydro-2H-furo[2,3-g]indazole-7-carboxamide] | 28 |
